What all share (test): inhibition of tumour cell growth, NCI panel, 48 h
In test [1] the test system is DU-145 prostate.
For test [2], the system named is HT29 colon.
In test [3] the test system is MALME-3M melanoma.
In test [4] the test system is MDA-MB-435.
Test [5] deals with NCI-H23 lung.
In test [6] the test system is NCI-H522 lung.
Test [7] has as its system PC-3 prostate.
Test [8] concerns SK-OV-3 ovarian.
The test system of test [9] is SNB-19 CNS.
Test [10] deals with UACC-257 melanoma.

SMILES strings stand for the structures. Where “and” joins values, the source holds several entries; their conditions need not be identical. Equal values may be shown once.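 96-well plates; 48 h exposure; 5 concentrations. Endpoints by linear interpolation between flanking doses. Not reached: highest tested concentration assigned. Abbreviation: GI50, concentration required for 50% inhibition of growth. Definition used: TGI = concentration required for complete inhibition of growth.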

With `S=C(N/N=C/c1ccccn1)Nc1ccccn1`, the GI50 in [1] was 2.58 µM; in [2], 3.1 µM; in test [3], 1.81 µM; in test [4], 3.86 µM; in test [5] it was 3.23 µM; in test [6], 0.241 µM. The GI50 is 1.46 µM in test [7], 2.29 µM in test [8], 2.16 µM in [9] and 0.903 µM in test [10]. Besides, the TGI in [1] was over 100 µM; in test [2], over 100 µM; in test [3], over 100 µM; in [4], over 100 µM; in test [5], over 100 µM; in [6], 0.842 µM. Also, the TGI in [7] is over 100 µM; in test [8], over 100 µM; in test [9], over 100 µM; in [10], 5.85 µM.
`COc1ccc(-c2nc(-c3cn(C)c4ncccc34)cs2)cc1`: the GI50 in test [1] is over 100 µM; in test [2] it was 17.3 µM; in [3], 22.2 µM; in test [4] it was 2.79 µM; in test [5], over 100 µM; in [6], 14.9 µM. Further, the GI50 in [7] was 18.3 µM; in [8], over 100 µM; in test [9], over 100 µM; in test [10] it was over 100 µM. Further, the TGI in test [1], in [2], in test [3], in test [4], in test [5] and in test [6] was over 100 µM in each case. Besides, the TGI in test [7], in test [8], in [9] and in test [10] was over 100 µM throughout.
In the case of `O=C(NOCC1CC1)c1ccc(F)c(F)c1Nc1ccc(I)cc1Cl`, the GI50 in test [1] is 4.07 µM; in test [2], 0.112 µM; in test [3], 0.0228 µM; in [4], 0.298 µM; in [5], 0.782 µM; in test [6], 1.94 µM. Further, the GI50 in test [7] was 3.03 µM; in test [8], 4.35 µM; in [9], 1.38 µM; in [10], 0.0549 µM. Also, the TGI is over 100 µM in [1]; 11.1 µM in test [2]; 0.0674 µM in test [3]; over 55.5 µM in test [4]; 23 µM in test [5]; 8.51 µM in test [6]. Besides, the TGI in test [7] is 16.5 µM; in test [8], over 100 µM; in [9], 97.3 µM; in test [10] it was 0.517 µM.
On to `Cn1c(=O)c2[nH]c(CS(=O)(=O)Cc3nc4c([nH]3)c(=O)n(C)c(=O)n4C)nc2n(C)c1=O`, for which the TGI in [1], in [2], in test [3], in [4], in [5] and in test [6] was over 100 µM each time. For the same compound, the TGI in test [7], in [8], in test [9] and in [10] was over 100 µM each time.
As for `S=C(Nc1ccc(Cl)cc1)Nc1ccc(-c2nc3ccccc3[nH]2)cc1`, the GI50 in [1] was 12.1 µM; in test [2] it was 4.06 µM; in [3] it was 7.19 µM; in [4] it was 9.11 µM; in test [5] it was 3.89 µM; in [6] it was 4.63 µM. For the same compound, the GI50 in test [7] was 5.37 µM; in test [8], 17.7 µM; in [9], 9.29 µM; in test [10] it was 14.7 µM. The TGI is 14.9 µM in test [2]; 32.1 µM in [3]; 26.6 µM in [4]; 17.5 µM in test [5]; 13.3 µM in test [6]; 35.8 µM in test [7]. The TGI in test [8] is over 100 µM; in test [9], 36.5 µM; in [10] it was over 52 µM.
For `Cc1[nH]c(/C=C2\C(=O)Nc3ccc(F)cc32)c(C)c1C(=O)NC[C@H](O)CN1CCOCC1`, the GI50 was 3.65 µM in test [1]; 2.91 µM in [2]; 4.21 µM in [3]; 3.2 µM in test [4]; 2.41 µM in test [5]; over 10 µM in test [6]. Also, the GI50 is 2.64 µM in test [7], 2.95 µM in test [8], over 10 µM in test [9] and 8.67 µM in test [10]. For the same compound, the TGI in [1], in test [2], in test [3], in test [4], in [5] and in test [6] was over 10 µM each time. Further, the TGI in test [7], in test [8], in [9] and in [10] was over 10 µM in each case.
Take `COc1ccc(-c2cn[nH]c2-c2cc(OC)c(OC)c(OC)c2)cc1N`: the GI50 in test [1] was < 0.01 µM and 0.0508 µM; in test [2], < 0.01 µM and 0.0339 µM; in [4], under 0.01 µM; in test [5] it was < 0.01 µM and 0.0634 µM; in test [6], under 0.01 µM; in test [7], < 0.01 µM and 0.0339 µM. Moreover, the GI50 in test [8] was < 0.01 µM and 0.0833 µM; in [9], < 0.01 µM and 0.0484 µM; in test [10] it was 28.4 µM. For the same compound, the TGI is over 100 µM in test [1]; over 100 µM in [2]; over 100 µM in test [3]; < 0.01 µM and 0.0309 µM in [4]; over 100 µM in test [5]; over 100 µM in [7]. Also, the TGI in [8], in [9] and in test [10] was over 100 µM each time.
Take `COc1c(O)ccc2c1CN1CCc3cc4c(cc3C1C2)OCO4` (stereo not given): the TGI in test [1] is over 100 µM; in test [2] it was over 100 µM; in test [3], over 100 µM; in test [4], over 60.9 µM; in [5], over 100 µM; in [6], 36.1 µM. Moreover, the TGI is over 100 µM in test [7], over 100 µM in test [8], over 100 µM in test [9] and over 77.2 µM in test [10].
As for `CC(=O)N1c2ccccc2Sc2cc(C(O)(C(F)(F)F)C(F)(F)F)ccc21`, the TGI in test [1], in test [2], in test [3], in test [4], in [5] and in test [6] was over 10 µM in each case. For the same compound, the TGI in [7], in test [8], in test [9] and in test [10] was over 10 µM throughout.
Regarding `O=C1CCC2(C=C(Br)C(=O)C(Br)=C2)O1`, the GI50 is 5.44 µM in test [1]; 2.89 µM in test [2]; 2.07 µM in test [3]; 4.84 µM in [4]; 12 µM in [5]; 0.31 µM in test [6]. For the same compound, the GI50 is 15.8 µM in [7], 17.4 µM in test [8], 18.5 µM in [9] and 3.52 µM in test [10]. In addition, the TGI in [1] is 15.5 µM; in test [2], 7.82 µM; in test [3] it was 4.67 µM; in [4] it was 11.3 µM; in [5], 30 µM; in test [6], 1.05 µM. Further, the TGI in [7] was 31.3 µM; in test [8] it was 31.3 µM; in test [9] it was 35.6 µM; in test [10] it was 9.28 µM.
With `C[C@H]1CCC/C=C/[C@@H]2C[C@H](O)C[C@H]2[C@H](O)[C@@H](S(=O)CCN(C)C)CC(=O)O1` (stereo not given in full), the GI50 in [1] is 0.555 µM; in test [2], 0.114 µM; in test [3] it was 0.174 µM; in [4] it was 0.193 µM; in [5] it was 0.229 µM; in test [6], 0.0677 µM. The GI50 was 0.26 µM in test [7], 0.295 µM in test [8] and 0.0904 µM in test [10]. The TGI in test [1] was over 100 µM; in test [2], 0.293 µM; in [3] it was 0.42 µM; in test [4], over 100 µM; in [5], over 38.8 µM; in test [6], 0.191 µM. For the same compound, the TGI is over 23.2 µM in test [7], over 67.6 µM in test [8], over 100 µM in test [9] and over 100 µM in test [10].
Turning to `CC1(C)OCC(CO)(Nc2nc(N3CC3)nc(N3CC3)n2)CO1`, the TGI in test [1] was determined as 8.91 µM; in test [2], 53.7 µM; in [3], 42.1 µM; in test [4], 46.4 µM; in test [5] it was 16.3 µM; in test [6] it was 33.8 µM. For the same compound, the TGI in test [7] was over 100 µM; in [8], 34.2 µM; in test [9], 62.1 µM; in test [10], 45.1 µM.
On to `O=C1C=Cc2ccccc2/C1=C/c1[nH]c(=O)[nH]c1O`, for which the GI50 in test [1] is 5.8 µM; in [2] it was 4.35 µM; in test [3], 4.19 µM; in test [4] it was 1.76 µM; in test [5], 8.19 µM; in test [6] it was 1.3 µM. For the same compound, the GI50 is 3.61 µM in [7], 3.66 µM in test [8], 3.49 µM in test [9] and 2.93 µM in test [10]. Further, the TGI in test [1] was 76.8 µM; in [2], 17.1 µM; in test [3], 88.2 µM; in test [4] it was 4.64 µM; in test [5], over 100 µM; in test [6], 3.89 µM. Moreover, the TGI in test [7] was over 100 µM; in test [8], 23.2 µM; in test [9], 16.6 µM; in test [10], over 100 µM.
Turning to `CC1=Cc2cc3[n-]c(cc4nc(cc5[n-]c(cc1n2)cc5C)C(C)=C4CCC(=O)O)c(CCC(=O)O)c3C.[Pd+2]`, the GI50 was over 100 µM in test [1]; 14.8 µM in [2]; 10.5 µM in test [3]; 68.9 µM in test [4]; 9.55 µM in test [5]; over 100 µM in test [7]. Besides, the GI50 in [8] was 11.5 µM; in test [9], 9.52 µM; in test [10] it was 10.8 µM. Further, the TGI was over 100 µM in test [1]; 36.3 µM in test [2]; 38.5 µM in [3]; over 100 µM in test [4]; 25.2 µM in test [5]; over 26.7 µM in test [6]. Moreover, the TGI was over 100 µM in [7], 30.1 µM in test [8], 34.1 µM in test [9] and 29.3 µM in test [10].
For the compound `CN(C)CCCNC(=O)c1cc(NC(=O)c2cc(NC(=O)c3cc(NC(=O)CCc4c[nH]c5ccccc45)cn3C)cn2C)cn1C`, the GI50 is over 100 µM in [1]; 30.7 µM in test [2]; 30.4 µM in test [3]; over 100 µM in test [4]; over 100 µM in [5]; over 100 µM in test [6]. The GI50 in test [7], in [8], in test [9] and in [10] was over 100 µM throughout. The TGI was over 100 µM in [1]; over 100 µM in [2]; 88.7 µM in [3]; over 100 µM in test [4]; over 100 µM in [5]; over 100 µM in test [6]. The TGI in [7], in [8], in test [9] and in test [10] was over 100 µM each time.
Regarding `O=C(C(Br)Br)C(Br)C(Br)c1ccccc1` (stereo not given), the GI50 in test [1] is 11.4 µM; in test [2], 2.5 µM; in test [3] it was 3.11 µM; in test [4] it was 2.67 µM; in test [5], 5.16 µM; in test [6], 1.81 µM. The GI50 is 3.67 µM in test [7], 17.2 µM in test [8], 17.4 µM in test [9] and 2.39 µM in test [10]. The TGI in test [1] was determined as 23.6 µM; in [2], 5.39 µM; in test [3], 8.65 µM; in test [4] it was 8.21 µM; in test [5], 27.5 µM; in test [6] it was 3.48 µM. In addition, the TGI turned out to be 15.2 µM in test [7], 31.1 µM in test [8], 35.2 µM in test [9] and 7.24 µM in test [10].

The values above are taken from PubChem BioAssay (NCI).
